In the CheMixHub viscosity set:

Experiment: xn = mol fraction of the nth substance listed
Conditions: 100 kPa

OCCOCCOCCO + CS(C)=O
viscosity [mPa·s]
Conditions | 293.15 K | 298.15 K | 303.15 K | 308.15 K | 313.15 K | 318.15 K
x1 = 0.0266 | 2.4 | 2.27 | 2.01 | 1.87 | 1.72 | 1.53
x1 = 0.0547 | 2.72 | 2.64 | 2.36 | 2.14 | 1.97 | 1.74
x1 = 0.0842 | 3.09 | 3.02 | 2.69 | 2.42 | 2.22 | 1.95
x1 = 0.1155 | 3.58 | 3.49 | 3.08 | 2.77 | 2.52 | 2.21
x1 = 0.1485 | 4.15 | 4.03 | 3.55 | 3.17 | 2.87 | 2.5
x1 = 0.1822 | 4.76 | 4.64 | 4.05 | 3.61 | 3.24 | –
x1 = 0.2192 | 5.55 | 5.38 | 4.67 | 4.13 | 3.7 | –
x1 = 0.2575 | 6.44 | 6.21 | 5.36 | 4.7 | 4.19 | –
x1 = 0.3003 | 7.57 | 7.25 | 6.2 | 5.42 | 4.79 | –
x1 = 0.3422 | 8.76 | 8.35 | 7.09 | 6.15 | 5.42 | –
x1 = 0.3888 | 10.2 | 9.68 | 8.15 | 7.03 | 6.15 | –
x1 = 0.4385 | 11.9 | 11.2 | 9.36 | 8.03 | 6.98 | –
x1 = 0.4915 | 13.9 | 13 | 10.8 | 9.17 | 7.91 | –
x1 = 0.5521 | 16.4 | 15.2 | 12.5 | 10.6 | 9.07 | –
x1 = 0.6114 | 19.2 | 17.6 | 14.3 | 12 | 10.2 | –
x1 = 0.6754 | 22.3 | 20.3 | 16.4 | 13.7 | 11.5 | –
x1 = 0.7463 | 26 | 23.6 | 18.9 | 15.7 | 13.1 | –
x1 = 0.8233 | 30.6 | 27.5 | 21.8 | 17.9 | 14.9 | –
x1 = 0.9083 | 35.9 | 32 | 25.2 | 20.5 | 16.9 | –
